Test results taken from patent US20220096511A1, “ANTIFUNGAL AGENTS WITH IMPROVED WATER SOLUBILITY” (priority 2019, published 2022).
Values after ≈ are worked out from the molar mass of the structure shown. Read-outs that look alike come from different tables or passages of the source.

Assays:
Candida albicans = test: Minimum inhibitory concentration (MIC) testing, diffusion disc assay; assay type: cell-based; settings: for Inhibition of Candida albicans (MIC): diffusion paper disc, overnight at 30° C., average of three experiments
Procedure: (§1) Minimum inhibitory concentration (MIC) testing was determined for nystatin ethanol amide along with comparative antifungal agents.
(§2) Nystatin (Solid) and amphotericin were dissolved in DMF in 1 mg/mL. Econazole nitrate and Nystatin ethanol amide (salt) were dissolved in PBS to achieve 1 mg/mL.
(§3) Antibiotic medium 19 was sterilized in autoclave, after sterilization when the temperature lowered to 45° C. and 1 mL from spore suspension was added. 8 mL from this mixture dispensed to each petri dish.
(§4) On each dish 6 sterile diffusion paper disc were placed, 10 μL from each antibiotic were applied in 10, 15, 20, 25, 30, 35 μg/mL concentrations. Where MIC concentrations were below 10, lower concentrations were used: 2, 5, 7.5 μg/mL
(§5) The petri dishes were incubated overnight at 30° C. The MIC were determined as the lower concentration that inhibition could be visualized.
(§6) Observations. In this diffusion disc assay we measured the minimal concentration applied by each compound needed to inhibit the growth of C. albicans and A. niger. […] Amphotericin B inhibit the growth of C. albicans (16 μg/mL) similarly to Nystatin and Nystatin water soluble.

Aspergillus niger = test: as above; assay type: cell-based; settings: for MIC: Aspergillus niger, read-out: Inhibition of Aspergillus niger (MIC)
Procedure: as §1, §2, §3, §4, §5, §6

microorganisms = test: Potency testing, cylinder plate assay, method USP <81>; assay type: cell-based; settings: for 1 mg
From the text: The terms “antifungal activity” or “potency,” these terms being used interchangeably, refer to the inhibitory effect of an antifungal agent on microorganisms under suitable conditions as measured using a standard analytical method, such as the methods established by the United States Pharmacopeial Convention (USP).
Potency testing is done using a cylinder plate assay using the methods described in U.S. Pharmacopeia, e.g., Pharmacopeial Forum, Vol. 36(6) [November-December 2010] <81> Antibiotics—Microbial Assays, USP 32 page 86 ff.
FIG. 5 is a photo showing the results of potency testing according to method USP/81 of the nystatin ethanol amide product.

hep2 cell line = test: Toxicity: viability of hep2 cell line after incubation with the compound; assay type: cell-based; settings: compared with nystatin
Procedure: Toxicity: Toxicity was tested with hep2 cell line by checking their viability after incubation with the compound. The amount of the compound that corresponds to 50% cell viability is the maximum amount of compound that can be apply on to cell culture.

Endotoxin testing (LAL) = settings: standard methods
Procedure: Endotoxin testing (LAL) was performed using standard methods and found to be <30 Eu/mg.

[1] = diffusion paper disc, overnight at 30° C., average of three experiments

| Compound | Inhibition of Candida albicans (MIC) (Candida albicans) | Inhibition of Aspergillus niger (MIC) (Aspergillus niger; [1]) | further results |
| --- | --- | --- | --- |
| Polymixin B | No inhibition | No inhibition | – |
| C[C@@H]1[C@H](O)[C@@H](C)/C=C/C=C/C=C/C=C/C=C/C=C/C=C/[C@H](O[C@@H]2O[C@H](C)[C@@H](O)[C@H](N)[C@@H]2O)C[C@@H]2O[C@](O)(C[C@@H](O)C[C@@H](O)[C@H](O)CC[C@@H](O)C[C@@H](O)CC(=O)O[C@H]1C)C[C@H](O)[C@H]2C(=O)O [Amphotericin, amphotericin B] | – | – | MIC (Aspergillus niger; [1]): 31.5 µg/mL (≈ 34.1 µM) |
| C[C@@H]1[C@H](O)[C@@H](C)/C=C/C=C/CC/C=C/C=C/C=C/C=C/C(O[C@H]2O[C@H](C)[C@@H](O)[C@H](N)[C@@H]2O)CC2O[C@](O)(CC(O)C(O)CCC(O)CC(O)CC(O)CC(=O)O[C@H]1C)CC(O)C2C(=O)O (stereo partly drawn) [Nystatin] | 14 µg/mL | 22.5 µg/mL | – |
| Nystatin Methyl ester | 30 µg/mL | No inhibition | Inhibition of Aspergillus niger (MIC) (Aspergillus niger; diffusion paper disc, overnight at 30° C., average of three experiments, listed as Nystatin methyl ester): no observed inhibition |
| Clc1ccc(COC(Cn2ccnc2)c2ccc(Cl)cc2Cl)cc1 (stereo not drawn) [Econazole, Econazole nitrate] | No inhibition | No inhibition | – |
| C[C@@H]1[C@H](O)[C@@H](C)/C=C/C=C/CC/C=C/C=C/C=C/C=C/[C@H](O[C@@H]2O[C@H](C)[C@@H](O)[C@H](N)[C@@H]2O)C[C@@H]2O[C@](O)(C[C@@H](O)[C@H](O)CC[C@@H](O)C[C@@H](O)C[C@@H](O)CC(=O)O[C@H]1C)C[C@H](O)[C@H]2C(=O)NCCO [Nystatin ethanol amide] | – | – | potency (microorganisms): 5500-6500 U; MIC (Candida albicans; Candida albicans, read-out: Inhibition of Candida albicans (MIC)): 15.7 µg/mL (≈ 16.2 µM); MIC (Aspergillus niger): 23.6 µg/mL (≈ 24.4 µM); Toxicity (amount of compound corresponding to 50% cell viability) (hep2 cell line): the same or better than the unsalable nystatin; Endotoxin (LAL) (Endotoxin testing (LAL)): < 30 Eu/mg |
